The subject of series [1] is Trypanosoma brucei brucei. In words: Antitrypanosomal activity against Trypanosoma brucei brucei Lister 427 bloodstream forms after 72 hrs by resazurin-based assay. It counts as functional, organism-based. The following applies: Lister 427, 72 h.
The nature of series [2]: Cytotoxicity against human THP1 cells after 72 hrs by MTT assay. The conditions noted are these: THP-1 cells, read-out: NOAEL. Type of series: cell-based.
The nature of another series: in vitro. The conditions noted are these: human, THP-1 cells.

SMILES strings stand for the structures.

Description for in vitro: Selectivity index, ratio of CC50 for human THP1 cells to EC50 for Trypanosoma brucei brucei Lister 427 bloodstream forms

For the compound `COc1ccc([C@H]2CC(=O)c3c(O)cc(O[C@@H]4O[C@H](CO)[C@@H](O)[C@H](O)[C@H]4O[C@@H]4O[C@@H](C)[C@H](O)[C@@H](O)[C@H]4O)cc3O2)cc1O`, the half-maximal inhibitory concentration (IC50) in series [1] is less than 30 µM.

For the compound `O=c1cc(-c2ccccc2)oc2cccc(O)c12` [5-HYDROXYFLAVONE], in series [1], the IC50 was less than 30 µM.

For `O=C1c2c(O)cccc2C(C2OC(CO)C(O)C(O)C2O)c2cc(CO)cc(O)c21` (stereo not given), the concentration for half-maximal inhibition (IC50) in series [1] was less than 30 µM.

`O=C(O)/C=C/c1ccccc1O` [O-COUMARIC ACID]: in series [1], the IC50 is less than 30 µM.

Take `Cc1cc(O)c2c(c1)C(=O)c1cc(O)cc(O)c1C2=O` [EMODIN]: the concentration for half-maximal inhibition (IC50) in series [1] was less than 30 µM.

Consider `COc1cc(O)c2c(=O)cc(-c3ccccc3)oc2c1` [TECHTOCHRYSIN], for which the concentration for half-maximal inhibition (IC50) in series [1] is less than 30 µM.

In series [1], `COc1ccc(/C=C/C(=O)O)cc1O` [ISOFERULIC ACID] showed an IC50 of less than 30 µM.

On to `O=C(O)/C=C/c1cccc(O)c1`, for which the IC50 in series [1] is less than 30 µM.

Take `N=C(N)c1ccc(OCCCCCOc2ccc(C(=N)N)cc2)cc1` [PENTAMIDINE]: the MNTC at 72 h in series [2] is 10 µM. Besides, in the series “in vitro”, the selectivity ratio was found to be 6440.

As to `O=C(O)c1cc(O)c(O)c(O)c1` [GALLIC ACID], the half-inhibitory concentration (IC50) in series [1] was less than 30 µM.

`O=C(/C=C/c1ccc(O)c(O)c1)O[C@@H]1C[C@](O)(C(=O)O)C[C@@H](O)[C@H]1O` [CHLOROGENIC ACID] gave an IC50 in series [1] of less than 30 µM.

In series [1], `Oc1cc(O)c2c(c1)O[C@H](c1ccc(O)c(O)c1)[C@@H](O)C2` [CIANIDANOL] returned an IC50 of less than 30 µM.

In turn, `C[C@H]1O[C@@H](O[C@@H]2[C@H](Oc3cc(O)c4c(c3)OC(c3ccc(O)cc3)CC4=O)O[C@@H](CO)[C@H](O)[C@H]2O)[C@@H](O)[C@@H](O)[C@@H]1O` (stereo not given in full) displayed a half-maximal inhibitory concentration (IC50) in series [1] of less than 30 µM.

Regarding `COc1ccc([C@H]2CC(=O)c3c(O)cc(O[C@@H]4O[C@H](CO[C@@H]5O[C@@H](C)[C@H](O)[C@@H](O)[C@H]5O)[C@@H](O)[C@H](O)[C@H]4O)cc3O2)cc1O`, in series [1], the IC50 was less than 30 µM.

As for `O=c1cc(-c2ccc(O)c(O)c2)oc2cc(O[C@@H]3O[C@@H](CO)[C@H](O)[C@@H](O)[C@@H]3O)cc(O)c12`, the IC50 in series [1] is less than 30 µM.

With `COc1cc(OC)c2c(=O)cc(-c3ccccc3)oc2c1` [CHRYSIN DIMETHYL ETHER], the IC50 in series [1] was less than 30 µM.

Turning to `COc1ccc([C@@H]2CC(=O)c3c(O)cc(O)cc3O2)cc1O` [HESPERETIN], the half-maximal inhibitory concentration (IC50) in series [1] is less than 30 µM.

In series [1], `COc1cccc(/C=C/C(=O)O)c1` showed a concentration for half-maximal inhibition (IC50) of less than 30 µM.

In series [1], `O=c1oc2c(O)c(O)cc3c(=O)oc4c(O)c(O)cc1c4c23` returned an IC50 of less than 30 µM.

With `O=c1cc(-c2ccc(O)c(O)c2)oc2cc(O)cc(O)c12` [LUTEOLIN], the IC50 in series [1] was less than 30 µM.

In series [1], `O=c1cc(-c2ccccc2)oc2cc(O)cc(O)c12` [CHRYSIN] registered an IC50 of less than 30 µM.

In turn, `Oc1cc(O)c2c(c1)O[C@H](c1ccc(O)c(O)c1)[C@H](O)C2` [(-)-EPICATECHIN] registered a 50% inhibitory concentration (IC50) in series [1] of less than 30 µM.

The compound `CC1(C(=O)O)CCC2(C)CCC3(C)C(=CC(=O)C4C5(C)CCC(OC6OC(C(=O)O)C(O)C(O)C6OC6OC(C(=O)O)C(O)C(O)C6O)C(C)(C)C5CCC43C)C2C1` (stereo not given) came in with an IC50 in series [1] of less than 30 µM.

With `O=c1cc(-c2ccccc2)oc2ccccc12` [FLAVONE], the concentration for half-maximal inhibition (IC50) in series [1] is less than 30 µM.

Take `O=C(O)/C=C/c1ccc(O)c(O)c1` [CAFFEIC ACID]: the IC50 in series [1] was less than 30 µM.

As to `COc1cc(/C=C/C(=O)O)ccc1O` [FERULATE], the IC50 in series [1] was less than 30 µM.

The compound `O=C(O)/C=C/c1ccc(O)cc1` [COUMARIC ACID] registered an IC50 in series [1] of less than 30 µM.

`COc1cc(-c2cc(=O)c3c(O)cc(O)cc3o2)ccc1O` [CHRYSOERIOL] had an IC50 in series [1] of less than 30 µM.

For the compound `O=C1CC(c2ccc(O)cc2)Oc2cc(O)cc(O)c21` (stereo not given), in series [1], the IC50 was less than 30 µM.

Values taken from ChEMBL document CHEMBL4431321, “Profiling of Flavonol Derivatives for the Development of Antitrypanosomatidic Drugs” (J Med Chem, 2016).
